Measured values taken from paper PMC4474554 (PLoS ONE, 2015).

Test system: EGFR kinases (all the variants tested)
Test: In vitro binding assay (ATP beads), all variant EGFR kinases
Conditions: at a concentration of 1000 μM

Nc1ncnc2c1ncn2[C@@H]1O[C@H](COP(=O)(O)OP(=O)(O)OP(=O)(O)O)[C@@H](O)[C@H]1O [ATP]
binding of exogenous ATP to EGFR kinases: weakly bound
